In US11679098B2, “Methods for treating diseases” (UNIVERSITY OF LOUISVILLE RESEARCH FOUNDATION, INC., priority 2018, dated 2023):

Tests used:
[1] = test system: IMR-90 (non-malignant lung fibroblasts); assay: MTT antiproliferative assay in IMR-90 cells; assay type: cell-based; conditions: Homo sapiens, 72 hrs treatment, read-out: MTT Antiproliferative Activity - IC50 (μM) IMR0 (non-malignant lung fibroblasts)
Experimental: (§1) Cell culture. A549 and IMR-90 cells were purchased from the American Type Culture Collection (ATCC), while HOP-62 and HOP-92 were obtained from the cell line repository at the National Cancer Institute. Cells were grown in the appropriate medium supplemented with 10% fetal bovine serum (FBS, Life Technologies, Grand Island, N.Y.), 62.5 μg/mL penicillin and 100 μg/mL streptomycin (Life Technologies) in a humidified incubator at 37° C. with 5% CO2. The media were as follows: Dulbecco's modified Eagle's medium (DMEM, Life Technologies) for A549 cells; RPMI 1640 (Life Technologies) for HOP-62 and HOP-92 cells; Eagle's minimal essential medium (EMEM) with Eagle's balanced salt solution (EBSS), 2 mM L-glutamine, 1500 mg/L sodium bicarbonate (Lonza, Walkersville, Md.), supplemented with 1 mM sodium pyruvate (Life Technologies) and non-essential amino acids (Life Technologies) for IMR-90 cells. Cell lines were verified with a 9-marker short tandem repeat profile and inter-species contamination test (Idexx BioResearch), although A549 cells utilized in proliferation assays were missing the Y allele at the amelogenin marker.
(§2) Cell proliferation & viability assays. Anti-proliferative activity of XB05 and other compounds was evaluated using a previously published 3-(4,5-dimethylthiazol-2-yl)-2,5-diphenyltetrazolium bromide (MTT) assay protocol (MORGAN “Tetrazolium (MTT) assay for cellular viability and activity” Methods Mol Biol. (1998) Vol. 79, pp. 179-83, which is herein incorporated by reference in its entirety, BATES et al. “Antiproliferative activity of G-rich oligonucleotides correlates with protein binding” J Biol Chem. (1999) Vol. 274, No. 37, pp. 26369-26377, which is herein incorporated by reference in its entirety, SALIPUR et al. “A novel small molecule that induces oxidative stress and selectively kills malignant cells” Free Radic Biol Med. (2014) Vol. 68, pp. 110-121, which is herein incorporated by reference in its entirety). Cells were seeded in quadruplicate wells in 96-well plates and allowed to adhere overnight. […] After 72 hrs of treatment with XB05 or other compounds, MTT (Sigma, St. Louis, Mo.) was added for 4 hrs prior to cell lysis. Each assay was performed in at least triplicate.
(§3) XB05 and related compounds were assessed for anti-proliferative activity in malignant (A549) and non-malignant (IMR-90) cells (Table A2).

[2] = test system: A549 (lung adenocarcinoma); assay: MTT antiproliferative assay in A549 cells; assay type: cell-based, human
Experimental: as §1, §2, §3

[3] = DTNB assay for reactivity with free thiols, reduced glutathione; assay type: physicochemical
Experimental: (§4) Dithiobis-2-nitrobenzioc acid (DTNB) assay for free sulfhydryls. Similar to previously described in SALIPUR et al. “A novel small molecule that induces oxidative stress and selectively kills malignant cells” Free Radic Biol Med. (2014) Vol. 68, pp. 110-121, which is herein incorporated by reference in its entirety, reactivity with free sulfhydryls was evaluated using DTNB (Sigma). Briefly, a 4× solution of DTNB (6 mM DTNB, 50 mM sodium acetate in 100 mM Tris-HCl, pH 8.0) and solutions of 0.5 mM cysteine (Sigma) and reduced glutathione (GSH, Sigma) in 100 mM Tris-HCl, pH 8.0 were freshly prepared. The 200 mM stock solutions of XB05, other compounds, diethylmaleate (Sigma), and maleimide (Sigma) were prepared in 100% DMSO, and subsequently diluted to 2× working solutions in 100 mM Tris-HCl, pH 8.0. Thiol compounds (final concentration 0.25 mM) and thiol-reactive compounds (final concentrations 0.04-5 mM) or vehicle were added in duplicate to a 96-well plate and incubated for 30 min at 37° C. DTNB solution was then added to each well (final concentration 400 μM), and incubated at room temperature for an additional 5 min. Absorbance at 412 nm was determined by a Biotek HT Synergy plate reader (Winooski, Vt.).

[4] = test system: MGST1 knockout A549 cells; assay: Relative proliferation of MGST1 knockout A549 cells (CRISPR/Cas9); assay type: cell-based, human; conditions: two different gRNA sequences, 72 h
Experimental: FIG. 3: To assess the role of MGST1 in XB05 activity, we engineered MGST1 knockout cells using CRISPR/Cas9 technology. Western blot analysis indicating the knockout of MGST1 in A549 cells.
(§5) FIG. 4: To assess the role of MGST1 in XB05 activity, we engineered MGST1 knockout cells using CRISPR/Cas9 technology. Effect of XB05 treatment (72 h) on the relative proliferation of two independent clones of A549 cancer cells that express MGST1 (non-transfected, non-targeting gRNA) or where MGST1 was knocked out (gRNA #2, gRNA 3).
Cell proliferation & viability assays. Anti-proliferative activity of XB05 and other compounds was evaluated using a previously published 3-(4,5-dimethylthiazol-2-yl)-2,5-diphenyltetrazolium bromide (MTT) assay protocol (MORGAN “Tetrazolium (MTT) assay for cellular viability and activity” Methods Mol Biol. (1998) Vol. 79, pp. 179-83, which is herein incorporated by reference in its entirety, BATES et al. “Antiproliferative activity of G-rich oligonucleotides correlates with protein binding” J Biol Chem. (1999) Vol. 274, No. 37, pp. 26369-26377, which is herein incorporated by reference in its entirety, SALIPUR et al. “A novel small molecule that induces oxidative stress and selectively kills malignant cells” Free Radic Biol Med. (2014) Vol. 68, pp. 110-121, which is herein incorporated by reference in its entirety). […]

[5] = DTNB assay for reactivity with free thiols, cysteine; assay type: physicochemical
Experimental: as §4

[6] = test system: A549 cells (non-transfected, non-targeting gRNA); assay: Relative proliferation of A549 cells that express MGST1 (non-transfected, non-targeting gRNA); assay type: cell-based, human; conditions: 72 h, non-transfected A549 and non-targeting gRNA
Experimental: as §5
Cell proliferation & viability assays. Anti-proliferative activity of XB05 and other compounds was evaluated using a previously published 3-(4,5-dimethylthiazol-2-yl)-2,5-diphenyltetrazolium bromide (MTT) assay protocol (MORGAN “Tetrazolium (MTT) assay for cellular viability and activity” Methods Mol Biol. (1998) Vol. 79, pp. 179-83, which is herein incorporated by reference in its entirety, BATES et al. “Antiproliferative activity of G-rich oligonucleotides correlates with protein binding” J Biol Chem. (1999) Vol. 274, No. 37, pp. 26369-26377, which is herein incorporated by reference in its entirety, SALIPUR et al. “A novel small molecule that induces oxidative stress and selectively kills malignant cells” Free Radic Biol Med. (2014) Vol. 68, pp. 110-121, which is herein incorporated by reference in its entirety). Cells were seeded in quadruplicate wells in 96-well plates and allowed to adhere overnight. […] After 72 hrs of treatment with XB05 or other compounds, MTT (Sigma, St. Louis, Mo.) was added for 4 hrs prior to cell lysis. […]

[7] = test system: NCI60 human tumor cell line panel; assay: NCI60 human tumor cell line screen; assay type: cell-based
Excerpt: FIG. 1: Screens to Identify the role of Microsomal glutathione S-transferase 1 (MGST1). Results from the NCI's 60 human tumor cell lines screen. The COMPARE algorithm was used to probe microarray results from the cell lines to identify gene expression that correlated with this unusual pattern of growth inhibition.
NCI60 human tumor cell line screen of XB05 activity. To further investigate the initial observations of XB05's anti-cancer activities, XB05 was submitted to the National Cancer Institute's Developmental Therapeutics Program for testing with the NCI60 human tumor cell line panel. This panel consists of 60 well-characterized human tumor cell lines (SHOEMAKER “The NCI60 human tumour cell line anticancer drug screen” Nat Rev Cancer (2006) Vol. 6, No. 10, Vol. 813-823, which is herein incorporated by reference in its entirety).

- IC50 ([2]; Homo sapiens, 72 hrs treatment, MTT): 0.4 µM
- reactivity with thiol of glutathione ([3]; FIG. 6): not reactive
- reactivity with thiol of cysteine ([5]; FIG. 5): not reactive
Structure (SMILES): CCCCCC(O)C#CC(F)(F)Br (stereo not drawn) [XB05]
- IC50 [1]: 2.5 µM
- IC30 value in A549 cells [2]: 1000 nM
- DTNB Reactivity with Thiols - DTNB assay with Glutathione ([3]; 0.25 mM reduced glutathione, 30 min at 37° C., pH 8.0): ND (DTNB ND - not detected at concentrations up to 2.5 mM)
- effect on cell proliferation after knockout of MGST1 [4]: reversed
- DTNB Reactivity with Thiols - DTNB assay with Cysteine ([5]; 0.25 mM cysteine, 30 min at 37° C., pH 8.0): ND (DTNB ND - not detected at concentrations up to 2.5 mM)
- cell proliferation, % of vehicle ([6]; 1 μM): approximately 20%
- cell proliferation, % of vehicle ([6]; 2 μM): ~5%
- activity in the NCI60 screen ([7]; 60 human tumor cell lines): activity against about one-third of cancer cells
- fold less sensitive (other cell lines in the screen) ([7]; less active cell lines versus sensitive cell lines): up to 1000 fold
